Test results as given in patent publication US20080194574A1, “Pyrazine Derivatives As Effective Compounds Against Infectious Diseases” (AXXIMA PHARMACEUTICALS AG, priority 2003, published 2008).
Where two headings read alike, the source gives them in different places. Blank lines part the entries; values can stand above or below the compound they belong to.

Assays:
RICK = RICK (Homo sapiens, UniProt O43353); assay: General kinase assay protocol (33P-ATP, MBP substrate, filter plate): RICK; assay type: biochemical; conditions: inhibition at concentration 10 μM; read-out: Inhibitory effect on Target RICK
Source text: (§1) General Assay Protocol for all Kinases
(§2) (For UL97 a special UL97 kinase assay was used as described below.)

HCMV strain AD169 = assay: HCMV replication assay (reporter gene) in human foreskin fibroblasts; assay type: cell-based, human cytomegalovirus; conditions: Human betaherpesvirus 5; HCMV strain AD169 in HFF cells; read-out: IC50 in inhibiting replication of HCMV
Protocol: To examine the effect of the pyrazine derivatives on HCMV replication, HCMV infections were performed in a cellular system.
Human foreskin fibroblasts (HFFs) were grown to subconfluency in 12 well plates and infected with 0.25 tissue culture infectious doses of HCMV AD-169 carrying a reporter gene (HCMV based antiviral assay). Pyrazine derivatives (stocks in DMSO (Dimethylsulfoxide)) were diluted in culture medium to the concentrations indicated and added to the cells immediately after virus adsorption. The success of infection (reporter gene expressing cells) and the lack of cytotoxicity of the compound (confluent cell layer) was monitored by microscopy. After seven days, cell layers were harvested, lysed and subjected to the automated fluorometry measurement of reporter gene activity. Each panel refers to a determination in quadruplicate (infection in duplicate, lysate preparation and measurement in duplicate).

viral kinase pUL-97 = biological target: T1, viral kinase pUL-97 (Human cytomegalovirus, UniProt P16788); assay: UL97 kinase assay on Immobilon plate; assay type: biochemical
T1 construct: The pUL-97 gene was cloned into a baculovirus vector; GST (glutathione S-transferase) (N); made in house; host or cells: Sf9 insect cells, baculovirus
In short: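 GST-pUL97 from baculovirus-infected Sf9 cells phosphorylated myelin basic protein with ATP (3 μM in the added assay buffer) and γ-[33P]ATP in Tris-HCl pH 7.5 buffer with MnCl2 and DTT. Reaction ran 1 h at 30 °C with graded compound concentrations and was stopped with EDTA. 33P incorporation was measured by scintillation after filter capture and phosphoric acid washes.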

SRPK1 = SRPK1 (Homo sapiens, UniProt Q96SB4); assay: General kinase assay protocol (33P-ATP, MBP substrate, filter plate): SRPK1; assay type: biochemical; conditions: inhibition at concentration 10 μM; read-out: Inhibitory effect on Target SRPK1
Protocol: as §1, §2
(§3) Final Assay Concentrations:
(§4) • 1) Add 8 μl 50 μM MBP in Reaction Buffer to each well of Assay Plate • 2) Add 10 μl 500 mM EDTA in H2O to C− wells • 3) Add 8 μl 62.5 μCi/ml Adenosine 5′-[γ-^33P]triphosphate+5 μM ATP in Reaction Buffer to each well • 4) Add 8 μl 5 fold concentrated inhibitor in 5% DMSO in Reaction Buffer to each well except to C− and C+ wells • 5) Add 8 μl 5% DMSO in Reaction Buffer to C− and C+wells • 6) Add 8 μl 5 fold concentrated kinase in Reaction Buffer to each well • 7) Incubate 1 hr at room temperature • 8) Add 10 μl 50 mM EDTA in H2O to each well except to C− wells • 9) Prepare MAPH plates by adding 200 μl 0.75% H3PO4 to each well • 10) Exhaust 0.75% H3PO4 using Millipore vacuum station • 11) Add 60 μl 0.75% H3PO4 to each well of MAPH Filter Plate • 12) Transfer 30 μl sample per well from Assay Plate to corresponding well of MAPH Filter Plate • 13) Incubate 30 min at room temperature • 14) Wash each well of MAPH Filter Plates 3× with 200 μl 0.75% H3PO4 using Millipore vacuum station • 15) Add 20 μl Szintilation Liquid to each well of MAPH Filter Plate • 16) Seal MAPH Filter Plate • 17) Store MAPH Filter Plate 30 min in darkness • 18) Quantify radioactivity

CDK9 = CDK9 (Homo sapiens, UniProt P50750); assay: General kinase assay protocol (33P-ATP, MBP substrate, filter plate): CDK9; assay type: biochemical; conditions: inhibition at concentration 10 μM; read-out: Inhibitory effect on Target CDK9
Protocol: as §1, §2, §3, §4

[1] = inhibition of UL 97 kinase activity, class by IC50 / % inhibition at 10 or 100 μM, read-out: Activity Class [A, B, C]
[2] = inhibition of UL 97 kinase activity, class by IC50 / % inhibition at 10 μM or 100 μM, read-out: Activity Class [A, B, C]

Sequence of RICK (O43353 whole entry, species assumed): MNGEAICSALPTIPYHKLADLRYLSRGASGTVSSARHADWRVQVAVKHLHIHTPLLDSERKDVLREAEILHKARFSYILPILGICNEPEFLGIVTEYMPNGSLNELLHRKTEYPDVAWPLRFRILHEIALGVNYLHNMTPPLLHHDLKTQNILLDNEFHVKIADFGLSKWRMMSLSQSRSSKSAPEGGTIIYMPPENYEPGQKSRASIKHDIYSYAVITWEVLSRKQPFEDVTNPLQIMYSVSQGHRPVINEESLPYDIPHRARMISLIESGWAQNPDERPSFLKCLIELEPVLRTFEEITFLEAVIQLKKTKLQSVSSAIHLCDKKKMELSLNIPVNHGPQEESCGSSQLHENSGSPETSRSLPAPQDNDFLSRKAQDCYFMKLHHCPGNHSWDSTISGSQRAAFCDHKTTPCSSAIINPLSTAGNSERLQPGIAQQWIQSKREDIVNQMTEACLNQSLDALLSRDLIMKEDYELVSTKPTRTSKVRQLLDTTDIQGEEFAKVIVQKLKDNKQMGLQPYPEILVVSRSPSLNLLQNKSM
T1 sequence (P16788 whole entry): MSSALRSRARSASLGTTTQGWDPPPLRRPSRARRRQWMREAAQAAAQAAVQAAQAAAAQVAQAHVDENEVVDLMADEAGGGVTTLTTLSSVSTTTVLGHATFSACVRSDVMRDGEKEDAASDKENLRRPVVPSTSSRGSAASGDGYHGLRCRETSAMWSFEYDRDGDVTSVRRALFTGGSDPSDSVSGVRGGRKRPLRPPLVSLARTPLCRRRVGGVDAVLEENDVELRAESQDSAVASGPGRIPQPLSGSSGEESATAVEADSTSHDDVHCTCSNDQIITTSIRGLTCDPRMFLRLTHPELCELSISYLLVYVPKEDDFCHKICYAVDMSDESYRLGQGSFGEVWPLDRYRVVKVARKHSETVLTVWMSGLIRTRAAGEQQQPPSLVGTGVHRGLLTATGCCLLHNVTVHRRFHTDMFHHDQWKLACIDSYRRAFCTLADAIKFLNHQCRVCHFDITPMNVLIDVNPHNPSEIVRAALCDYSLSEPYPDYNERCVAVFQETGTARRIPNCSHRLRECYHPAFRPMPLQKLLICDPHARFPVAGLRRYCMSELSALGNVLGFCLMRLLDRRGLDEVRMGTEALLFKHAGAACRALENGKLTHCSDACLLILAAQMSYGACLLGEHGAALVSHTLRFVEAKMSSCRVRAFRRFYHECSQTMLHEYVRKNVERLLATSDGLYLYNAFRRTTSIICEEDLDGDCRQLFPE
Sequence of CDK9 (P50750 whole entry, species assumed): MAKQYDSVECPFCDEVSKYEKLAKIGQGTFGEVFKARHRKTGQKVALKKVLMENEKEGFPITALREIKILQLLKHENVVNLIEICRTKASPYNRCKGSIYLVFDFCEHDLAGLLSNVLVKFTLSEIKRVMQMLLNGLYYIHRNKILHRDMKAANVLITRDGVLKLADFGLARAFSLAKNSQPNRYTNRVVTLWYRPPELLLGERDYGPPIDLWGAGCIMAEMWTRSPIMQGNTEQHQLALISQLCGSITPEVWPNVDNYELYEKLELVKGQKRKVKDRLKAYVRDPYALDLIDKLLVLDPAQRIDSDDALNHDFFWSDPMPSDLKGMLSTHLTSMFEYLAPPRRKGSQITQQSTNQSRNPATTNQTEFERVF
Sequence of CDK9 (O60563 whole entry partner, species assumed): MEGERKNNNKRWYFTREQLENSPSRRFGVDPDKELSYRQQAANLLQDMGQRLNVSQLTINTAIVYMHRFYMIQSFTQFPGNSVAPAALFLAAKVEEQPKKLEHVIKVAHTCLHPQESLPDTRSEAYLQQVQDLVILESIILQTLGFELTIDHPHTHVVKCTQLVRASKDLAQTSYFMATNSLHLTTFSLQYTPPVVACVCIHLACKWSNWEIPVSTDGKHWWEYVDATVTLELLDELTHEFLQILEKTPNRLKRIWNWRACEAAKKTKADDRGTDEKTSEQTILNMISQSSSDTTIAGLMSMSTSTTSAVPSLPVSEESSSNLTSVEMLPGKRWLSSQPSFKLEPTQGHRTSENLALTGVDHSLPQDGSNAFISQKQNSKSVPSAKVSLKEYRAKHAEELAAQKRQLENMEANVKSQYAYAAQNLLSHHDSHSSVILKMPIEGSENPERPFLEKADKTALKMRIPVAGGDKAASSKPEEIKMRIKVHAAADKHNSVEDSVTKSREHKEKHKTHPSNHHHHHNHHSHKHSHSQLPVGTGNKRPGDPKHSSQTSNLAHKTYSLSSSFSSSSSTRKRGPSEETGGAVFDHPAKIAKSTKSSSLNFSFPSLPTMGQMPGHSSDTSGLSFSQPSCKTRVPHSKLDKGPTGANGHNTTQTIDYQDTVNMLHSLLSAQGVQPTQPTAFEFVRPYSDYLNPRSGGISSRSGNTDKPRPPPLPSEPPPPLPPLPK
Sequence of SRPK1 (Q96SB4 whole entry, species assumed): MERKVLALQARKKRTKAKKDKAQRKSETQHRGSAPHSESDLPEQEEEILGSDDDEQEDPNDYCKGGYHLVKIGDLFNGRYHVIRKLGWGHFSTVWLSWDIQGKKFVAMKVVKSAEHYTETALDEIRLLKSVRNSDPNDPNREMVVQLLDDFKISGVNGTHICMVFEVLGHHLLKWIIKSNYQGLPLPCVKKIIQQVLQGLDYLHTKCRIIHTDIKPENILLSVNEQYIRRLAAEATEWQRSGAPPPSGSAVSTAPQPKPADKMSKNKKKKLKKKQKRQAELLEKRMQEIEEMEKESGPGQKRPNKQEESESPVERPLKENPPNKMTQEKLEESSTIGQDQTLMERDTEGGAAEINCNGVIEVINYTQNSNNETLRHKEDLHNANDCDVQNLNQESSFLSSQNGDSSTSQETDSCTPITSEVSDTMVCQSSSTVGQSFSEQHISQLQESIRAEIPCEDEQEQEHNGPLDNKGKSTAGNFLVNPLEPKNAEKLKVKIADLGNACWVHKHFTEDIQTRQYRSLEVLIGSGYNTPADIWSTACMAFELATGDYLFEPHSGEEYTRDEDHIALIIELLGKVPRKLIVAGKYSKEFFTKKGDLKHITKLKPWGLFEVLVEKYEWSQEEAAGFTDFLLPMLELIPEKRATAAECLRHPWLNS

Compound: COc1cccc(-c2cnc(N)c(Nc3ccc4[nH]ccc4c3)n2)c1 [compound 432]
inhibition at 10 µM (RICK): > 75%

Compound: COc1cc(Nc2cncc(-c3cccc(O)c3)n2)cc(OC)c1OC [compound 423]
inhibition at 10 µM (RICK): > 50%

Compound: Nc1nc(O)c2ncn(COC(CO)CO)c2n1 [ganciclovir]
IC50 (HCMV strain AD169): 3 to 4 µM

Compound: Nc1ncc(-c2ccc(O)cc2)nc1Nc1ccc2[nH]ccc2c1 [compound 428]
inhibition at 10 µM (RICK): > 50%

Compound: COc1cc(Nc2cncc(-c3cccc(F)c3)n2)cc(OC)c1OC [Comp. 7, [6-(3-Fluoro-phenyl)-pyrazin-2-yl]-(3,4,5-trimethoxy-phenyl)-amine]
inhibition at 10 µM (RICK): > 50% | IC50 (viral kinase pUL-97; [1]): 1 to 10 µM

Compound: CN(C)CCNC(=O)c1cccc(-c2cncc(Nc3ccc(C#N)c(Cl)c3)n2)c1 [Comp. 22, 3-[6-(3-Chloro-4-cyano-phenylamino)-pyrazin-2-yl]-N-(2-dimethylamino-ethyl)-benzamide]
inhibition at 10 µM (SRPK1): > 75% | IC50 (viral kinase pUL-97): < 1 µM

Compound: Oc1ccc(-c2cncc(Nc3ccccc3)n2)cc1 [compound 386]
inhibition at 10 µM (RICK): > 75%

Compound: COc1cc(Nc2cncc(-c3ccc(N)cc3)n2)cc(OC)c1OC [compound 398]
inhibition at 10 µM (RICK): > 75%

Compound: OCc1ccccc1-c1cncc(Nc2ccc(Cl)cc2)n1 [compound 420]
inhibition at 10 µM (RICK): > 50%

Compound: COc1cc(Nc2cncc(-c3ccc4ccccc4c3)n2)cc(OC)c1OC [compound 402]
inhibition at 10 µM (RICK): > 75%

Compound: CCOc1ccc(-c2cncc(N3CCN(c4ccccc4F)CC3)n2)cc1 [compound 127, 6′-(4-Ethoxy-phenyl)-4-(2-fluoro-phenyl)-3,4,5,6-tetrahydro-2H-[1,2′]bipyrazinyl]
IC50 (viral kinase pUL-97; [1]): 10 to 100 µM

Compound: Cc1cccc(-c2cncc(N3CCN(c4ccc(F)cc4)CC3)n2)c1 [compound 232, 4-(4-Fluoro-phenyl)-6′-m-tolyl-3,4,5,6-tetrahydro-2H-[1,2′]bipyrazinyl]
IC50 (viral kinase pUL-97; [2]): 10 to 100 µM

Compound: NCc1ccc(-c2cncc(N3CCN(C(=O)c4ccco4)CC3)n2)cc1 [compound 59, [6′-(4-Aminomethyl-phenyl)-2,3,5,6-tetrahydro-[1,2′]bipyrazinyl-4-yl]-furan-2-yl-methanone]
IC50 (viral kinase pUL-97; [1]): 10 to 100 µM

Compound: c1coc(CNc2cncc(-c3cc4ccccc4o3)n2)c1 [compound 23, (6-Benzofuran-2-yl-pyrazin-2-yl)-furan-2-ylmethyl-amine]
IC50 (viral kinase pUL-97; [1]): 10 to 100 µM

Compound: Fc1ccccc1N1CCN(c2cncc(-c3csc4ccccc34)n2)CC1 [compound 251, 6′-Benzo[b]thiophen-3-yl-4-(2-fluoro-phenyl)-3,4,5,6-tetrahydro-2H-[1,2′]bipyrazinyl]
IC50 (viral kinase pUL-97; [2]): 10 to 100 µM

Compound: CSc1ccccc1-c1cncc(N2CCN(c3ccccn3)CC2)n1 [compound 342, 6′-(2-Methylsulfanyl-phenyl)-4-pyridin-2-yl-3,4,5,6-tetrahydro-2H-[1,2′]bipyrazinyl]
IC50 (viral kinase pUL-97; [2]): 10 to 100 µM

Compound: COc1ccccc1N1CCN(c2cncc(-c3ccc4ccccc4c3)n2)CC1 [compound 86, 4-(2-Methoxy-phenyl)-6′-naphthalen-2-yl-3,4,5,6-tetrahydro-2H-[1,2′]bipyrazinyl]
IC50 (viral kinase pUL-97; [1]): 1 to 10 µM

Compound: COc1cc(-c2cncc(Nc3ccc(F)c(Cl)c3)n2)cc(OC)c1OC [compound 382]
inhibition at 10 µM (RICK): > 50%

Continued, values first:

inhibition at 10 µM (RICK): > 50%
Compound: Oc1cccc(-c2cncc(Nc3ccc(F)c(Cl)c3)n2)c1 [compound 417]

inhibition at 10 µM (RICK): > 50%
Compound: CN(C)c1cccc(-c2cncc(Nc3cccc(C#N)c3)n2)c1 [compound 391]

inhibition at 10 µM (RICK): > 50%
Compound: Cc1ccc(Nc2cncc(-c3ccc(F)cc3F)n2)cc1NS(C)(=O)=O [compound 410]

inhibition at 10 µM (RICK): > 50%
Compound: Nc1cccc(-c2cncc(Nc3ccc(Cl)cc3)n2)c1 [compound 380]

inhibition at 10 µM (RICK): > 50%
Compound: COc1ccc(-c2cncc(Nc3cccc(C#N)c3)n2)cc1 [compound 388]

inhibition at 10 µM (SRPK1): > 50%
Compound: CC(=O)Nc1ccc(-c2cncc(Nc3ccccc3)n2)cc1 [Comp. 401]

inhibition at 10 µM (RICK): > 50% | IC50 (viral kinase pUL-97; [1]): < 1 µM
Compound: Oc1ccc(-c2cncc(Nc3cccc(C(F)(F)F)c3)n2)cc1 [compound 29, 4-[6-(3-Trifluoromethyl-phenylamino)-pyrazin-2-yl]-phenol]

inhibition at 10 µM (CDK9): > 50%
Compound: CC(=O)Nc1ccc(-c2cncc(Nc3ccc(Cl)cc3)n2)cc1 [compound 397]

inhibition at 10 µM (RICK): > 50% | inhibition at 10 µM (CDK9): > 75% | IC50 (viral kinase pUL-97; [1]): < 1 µM
Compound: Oc1ccc(-c2cncc(Nc3ccc(F)c(Cl)c3)n2)cc1 [Comp. 11]

inhibition at 10 µM (CDK9): > 50%
Compound: CC(=O)Nc1cccc(-c2cncc(Nc3ccc4c(c3)OC(F)(F)C(F)(F)O4)n2)c1 [compound 403]

inhibition at 10 µM (RICK): > 50% | inhibition at 10 µM (CDK9): > 50%
Compound: CN(C)CCNC(=O)c1cccc(-c2cncc(Nc3ccc(Cl)cc3)n2)c1 [Comp. 381]
